Entries after “also recorded” stand apart in the source; their conditions may differ.
Experiments:
[1] = in vitro and in vivo; cited from earlier work
[2] = system: TMZ sensitive (U251) cells; assay: Colony forming assay, TMZ sensitive U251 cells; format: cell-based, human; conditions: in words
Procedure: (§1) Colony forming assays were carried out after cells were treated with TMZ alone, POH alone, and the TMZ-POH conjugate. […] Cancer Lett. 2011 Mar. 28; 302(2):100-8.

[3] = system: a variant of MDA-MB-231; assay: In vitro sensitivity of the cell line used in vivo; format: cell-based; conditions: Homo sapiens, in vitro sensitivity to TMZ
[4] = system: TMZ resistant (U251TR) U251 cells; assay: Colony forming assay, TMZ resistant U251TR cells; format: cell-based, human; conditions: in words
Procedure: as §1

[5] = system: MDA-MB-468; assay: Colony formation assay, MDA-MB-468; conditions: for IC50: Homo sapiens, MDA-MB-468, 48 h, read-out: IC50 (concentration required to decrease colony formation by 50%)
Procedure: (§2) Depending on the cell line (and plating efficiency), 200-350 cells were seeded into each well of a 6-well plate. […] Thereafter, the drugs were removed, fresh growth medium was added, and the cells were kept in culture undisturbed for 12-16 days, during which time the surviving cells spawned colonies of descendants. Colonies (defined as groups of >50 cells) were visualized by staining for 4 hours with 1% methylene blue (in methanol), and then were counted.
In the case of O6-BG treatment, cells were pretreated with 10 μM O6-BG for one hour before addition of TMZ or TMZ-POH. After 24 hours, another 10 μM O6-BG was added to the medium. Another 24 hours later, drug-laced medium was removed, and fresh medium without drugs was added. Thereafter, cells remained undisturbed until staining with methylene blue.
The cytotoxic potency of TMZ-POH, was analyzed by colony formation assay (CFA) in a variety of human breast cancer cell lines and compared to the cytotoxicity of TMZ. We used estrogen receptor positive cells MCF7 and T47D, the triple-negative lines MDA-MB-231, MDA-MB-468, and HCC-1937, and a brain-seeking variant of the 231 cell line, MDA-MB-231-br.

[6] = CSF versus systemic circulation; cited from earlier work
[7] = system: CHOP; assay: Western blot of ER stress in TMZ sensitive and resistant U251 glioma cells; format: cell-based, human
Procedure: Western blots were performed after TMZ sensitive and resistant glioma cells were treated with the TMZ-POH conjugate for 18 hr.

[8] = system: tumor brain endothelial cells (TuBEC); assay: MTT cytotoxicity assay, tumor brain endothelial cells; format: cell-based; conditions: in words
Source text: (§3) Cancer Lett. 2011 Mar. 28; 302(2):100-8.

[9] = system: γ-H2AX; assay: Western blot of DNA damage marker in MDA-MB-231 cells; format: cell-based, human; conditions: MDA-MB-231, 50 μM, time course of 72 hours; in words
Procedure: (§4) Actin was used as a loading control.
(§5) Total cell lysates were analyzed by Western blot analysis as described in P. Pyrko et al. Downregulation of survivin expression and concomitant induction of apoptosis by celecoxib and its non-cyclooxygenase-2-inhibitory analog, dimethyl-celecoxib (DMC), in tumor cells in vitro and in vivo. Mol Cancer 5 (2006) 19. The primary antibodies were purchased from Cell Signaling Technology (Beverly, Mass.) or Santa Cruz Biotechnology, Inc. (Santa Cruz, Calif.) and used according to the manufacturers' recommendations. All immunoblots were repeated at least once to confirm the results.

[10] = system: USC-04 glioma cancer stem cells; assay: cells; conditions: read-out: cytotoxicity with 1050
Procedure: MTT cytotoxicity assays were carried out after cells were treated with the TMZ alone, POH alone, or the TMZ-POH conjugate. The MTT cytotoxicity assays were carried out as described in Chen T C, et al. Green tea epigallocatechin gallate enhances therapeutic efficacy of temozolomide in orthotopic mouse glioblastoma models. Cancer Lett. 2011 Mar. 28; 302(2):100-8.

[11] = system: brain endothelial cells (BEC; confluent and subconfluent); assay: MTT cytotoxicity assay, brain endothelial cells; format: cell-based; conditions: in words
Source text: as §3

[12] = system: MGMT-positive breast cancer cell lines; assay: Colony formation assay, MGMT-positive breast cancer cell lines (summary); format: cell-based; conditions: Homo sapiens; range over the three MGMT-positive lines
Procedure: as §2

[13] = system: γ-H2AX; assay: Western blot of DNA damage marker in MCF7 cells; format: cell-based, human; conditions: MCF-7, 50 μM, 48 hours, in words
Procedure: as §4, §5

[14] = system: γ-H2AX, activated caspase 7 and cleaved PARP; assay: DNA damage and cell death marker analysis in MDA-MB-231 cells (Western blot); format: cell-based, human; conditions: in words
Procedure: FIGS. 25A-25B show DNA damage and cell death marker analysis, where MDA-MB-231 cells were used for Western blot analysis of expression levels for markers of DNA damage (γ-H2AX) and cell death (activated caspase 7 and cleaved PARP). In FIG. 25A, cells were treated with 15 μM TMZ-POH and harvested every 24 hours up to 6 days; control cells remained untreated, or received vehicle (vh.) only. In FIG. 25B, cells were treated with 20 μM of either TMZ-POH, TMZ, or POH individually, or with 20 μM TMZ combined with 20 μM POH (TMZ+POH) and harvested after 24 hours or 5 days; control cells remained untreated, or received vehicle (vh.) only. In the case of caspase 7, only the activated (cleaved) form is shown (cl. C-7).
as §5
It is known that GBM cells treated with physiological concentrations of TMZ (<100 μM) in vitro can survive for several (5-7) days seemingly unaffected before substantial cell death becomes apparent. We observed a similar phenotype when breast cancer cell lines were treated with TMZ-POH, i.e., cell cultures only began to deteriorate approximately a week after the onset of drug treatment. In order to characterize TMZ-POH-induced cell death in greater detail, we treated MDA-MB-231 cells with 15 μM of the drug and collected cell lysates daily over the course of 6 days. The lysates were analyzed by Western blot for the presence of two apoptosis markers, cleaved (i.e. activated) caspase 7 and cleaved PARP-1 (poly ADP-ribose polymerase-1), along with the DNA damage marker γ-H2AX.
As shown in FIGS. 20A-20B above, an equimolar combination of TMZ+POH was unable to achieve the same potency in blocking colony survival as the TMZ-POH conjugate. […] We treated cells with the same concentration (20 μM) of TMZ-POH, TMZ, POH, or TMZ combined with POH (TMZ+POH), and analyzed the induction of γ-H2AX, activated caspase 7, and cleaved PARP. […] Thus, the results from the cell survival assay (FIGS. 20A-20B) correlated closely with the effects of these compounds on DNA damage and apoptosis markers (FIG. 25B), and in all cases TMZ-POH clearly generated the strongest anticancer impact.

[15] = system: MGMT-negative cell lines; assay: Colony formation assay, MGMT-negative breast cancer cell lines (summary); format: cell-based, human
Procedure: as §2

Compound: Cn1nnc2c(C(N)=O)ncn2c1=O [TMZ, temozolomide, reference compound]
- half-life [1]: 1 to 2 h
- cytotoxicity (colony forming assay) [2]: demonstrated cytotoxicity
- IC50 [3]: < 10 µM
- cytotoxicity (colony forming assay) [4]: minimal cytotoxicity
- IC50 [5]: 195 µM
- drug levels in the cerebrospinal fluid (CSF) lower than in plasma [6]: 80%

Compound: C=C(C)[C@@H]1CC=C(COC(=O)NC(=O)c2ncn3c(=O)n(C)nnc23)CC1 [TMZ-POH]
- concentration at which activation of the proapoptic protein CHOP was shown (as low as) ([7]; 18 hr treatment): 60 µM
- ER stress (ERS) ([7]; TMZ sensitive and resistant U251, 18 hr, in words): induces ER stress
- cytotoxicity (MTT assay) [8]: did not induce significant cytotoxicity
- levels of γ-H2AX [9]: substantially increased levels of γ-H2AX; also recorded: much stronger as compared to TMZ
- IC50 [10]: 150 µM
- cytotoxicity (MTT assay) ([11]; confluent BEC): did not induce significant cytotoxicity
- cytotoxicity (MTT assay) ([11]; subconfluent BEC, high concentrations): Mild to moderate cytotoxicity
- IC50 [12]: 31 to 33 µM
- cytotoxicity (colony forming assay) [2]: demonstrated cytotoxicity; also recorded: substantially greater potency compared to POH alone
- phosphorylation of H2AX ([13]; without O6-BG): no increased phosphorylation of H2AX
- levels of γ-H2AX ([13]; pre-treated with O6-BG (30 μM)): increased levels of γ-H2AX became readily apparent
- cytotoxicity (colony forming assay) [4]: demonstrated cytotoxicity; also recorded: substantially greater potency compared to POH alone
- IC50 [5]: 31 µM
- Differential (−fold) ([5]; fold increase in potency of TMZ-POH compared to TMZ, MDA-MB-468): 6.3 −fold
- colony formation (CFA) ([5]; low micromolar concentrations, 48 hours, in words): prevented colony formation
- active caspase 7 and cleaved PARP ([14]; MDA-MB-231, 15 μM, over 6 days): started to increase at day 3
- γ-H2AX expression levels ([14]; MDA-MB-231, 15 μM, over 6 days): pronounced increase in γ-H2AX expression levels
- induction of γ-H2AX, activated caspase 7, and cleaved PARP ([14]; MDA-MB-231, 20 μM, after 5 days of treatment): induced quite prominently
- IC50 ([15]; Homo sapiens, range over MGMT-negative cell lines): 1.2 to 4.6 µM
- active in the range of ([15]; MGMT-negative cells): 1 to 5 µM
